Reference: patent US20100041662A1, “Heterocyclic compounds as antiinflammatory agents” (priority 2006, published 2010)

T1: human ALK5 (ALK5 T204D kinase domain) (Homo sapiens, UniProt P36897, T204D)
T1 construct: The kinase domain of human ALK5 (amino acids 200-503) is fused to an N-terminal histidine tag; made in house; host or cells: insect cells (baculovirus)
T1 sequence (P36897 200-503 T204D): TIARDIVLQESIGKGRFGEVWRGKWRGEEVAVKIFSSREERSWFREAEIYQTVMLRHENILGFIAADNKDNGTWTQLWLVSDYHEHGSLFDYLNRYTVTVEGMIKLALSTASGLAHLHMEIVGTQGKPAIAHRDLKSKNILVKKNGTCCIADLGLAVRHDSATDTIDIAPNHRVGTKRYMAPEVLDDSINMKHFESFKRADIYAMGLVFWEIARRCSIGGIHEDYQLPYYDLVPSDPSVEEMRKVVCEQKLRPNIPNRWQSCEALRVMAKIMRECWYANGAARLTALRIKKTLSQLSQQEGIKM

B1: follistatin: an antagonist of activin signalling (protein, UniProt P19883 30-344, looked up)
Follistatin: GNCWLRQAKNGRCQVLYKTELSKEECCSTGRLSTSWTEEDVNDNTLFKWMIFNGGAPNCIPCKETCENVDCGPGKKCRMNKKNKPRCVCAPDCSNITWKGPVCGLDGKTYRNECALLKARCKEQPELEVQYQGRCKKTCRDVFCPGSSTCVVDQTNNAYCVTCNRICPEPASSEQYLCGNDGVTYSSACHLRKATCLLGRSIGLAYEGKCIKAKSCEDIQCTGGKKCLWDFKVGRGRCSLCDELCPDSKSDEPVCASDNATYASECAMKEAACSSGVLLEVKHSGSCNSISEDTEEEEEDEDQDYSFPISSILEW

Assays:
[1] = target: T1, human ALK5 (ALK5 T204D kinase domain); assay: ALK5 kinase activity, [33P] phosphate incorporation into casein; format: biochemical; settings: casein substrate
Experimental: The kinase activity of ALK5 is assessed by measuring radiolabelled phosphate [33P] incorporation in to the generic substrate, casein. The kinase domain of human ALK5 (amino acids 200-503) is fused to an N-terminal histidine tag. The kinase activity of ALK5 is rendered constitutive via point mutation at amino acid 204 (threonine to aspartate modification, ALK5 T204D) and the kinase construct is engineered to be expressed from a baculovirus expression construct in insect cells. The purified, recombinantly-expressed histidine-tagged ALK5 T204D protein is dissolved at 5.4 mg/ml in 50 mM Tris-HCl pH 8.0, 150 mM NaCl, 5 mM DTT. ALK5 T204D is dissolved to 2.5 μg/ml in assay buffer (Assay buffer: 20 mM Tris-HCl pH 7.4, 10 mM MgCl2, 2 mM MnCl2) on the day of use.
Test compounds and reference compounds are dissolved in assay buffer without DTT containing 5% (v/v) DMSO. Stock solutions of test and reference compounds are diluted in assay buffer with DTT (1.25 mM) containing 4.5% (v/v) DMSO. 10 μl of test or reference compound are added to the appropriate wells of 96 well U-bottomed plate. Total enzyme activity is determined by measuring ALK5 T204D activity in the absence of ALK5 kinase inhibitor reference compounds. Non-specific binding (NSB) is determined by measuring the activity of ALK5 T204D in the presence of ALK5 kinase inhibitor reference compounds. 10 μl of dephosphorylated casein stock solution (dephosphorylated casein is dissolved in ddH2O at 20 mg/ml) is added per well (200 μg/well final assay concentration). 20 μl of ALK5 T204D (2.5 μg/ml solution) is added per well (50 ng/well final assay concentration). The plates are left to incubate at room temperature for 10 minutes.
10 μl of ATP mix is added to the well to initiate the reaction (0.66 nM [^33P]ATP/1 μM unlabelled ATP/well final assay concentration). The ATP mix is prepared as follows, unlabelled ATP (3 mM) is dissolved in ddH2O and pH adjusted to 7.4. The stock concentration of [^33P]ATP is 10 μCi/μl. The appropriate volume of [^33P]ATP is added to unlabelled ATP solution such that the final assay concentration per well is 0.1 μCi. Following addition of the ATP mix, the plates are incubated at room temperature for 50 minutes. The kinase reaction is terminated by the addition of 50 μL Stop Buffer (20 mM Tris-HCl pH 7.4, 10 mM EDTA).
75 μl/well from the reaction plate is transferred to a Multiscreen-IP plate (MultiScreen-IP plates are prepared by added 50 μL of 70% (v/v) ethanol per well and incubated for 5 minutes at room temperature. The ethanol is removed by aspiration via a MultiScreen HTS Vacuum Manifold unit (Millipore, Cat no: MSVMHT500). The plates are washed twice by adding 200 μl/well ddH2O). The MultiScreen-IP plate is incubated at room temperature for 30 minutes to allowing binding of casein to the plate. The MultiScreen-IP plates are washed three times by adding 200 μl/well 100 mM phosphoric acid solution and the gasket is carefully removed from the back of the MultiScreen-IP plate and the plate dried in the oven for 30 minutes. The MultiScreen-IP plate is backsealed, 50 μL of Microscint™20 is added, then the plates are topsealed and radiolabelled casein detected and quantified on a TopCount™ plate-reader using the ^33P scintillation protocol.

[2] = target: T2, JAK2 (GST-JAK2(808-1132)) (Homo sapiens, UniProt O60674); assay: JAK/TYK-kinase family profiling, Caliper mobility shift assay; format: biochemical; settings: 20 μM ATP, JAK3tide substrate
T2 construct: GST-JAK2(808-1132) was purchased from Invitrogen (Carlsbad, USA, #4288); purchased Invitrogen (Carlsbad, USA) #4288
From the text: All four kinases of the JAK/TYK-kinase family were used as purified recombinant GST-fusion proteins, containing the active kinase domains. GST-JAK1(866-1154), GST-JAK3(811-1124), and GST-TYK2(888-1187) were expressed and purified by affinity chromatography at the EPK biology unit. GST-JAK2(808-1132) was purchased from Invitrogen (Carlsbad, USA, #4288).
The kinase assays were based on the Caliper mobility shift assay using the LabChip 3000 systems. This technology is similar to capillary electrophoresis and uses charge driven separation of substrate and product in a microfluidic chip.
All kinase reactions were performed in 384 well microtiter plates in a total reaction volume of 18 μl. The assay plates were prepared with 0.1 μl per well of test compound in the appropriate test concentration, as described under the section “preparation of compound dilutions”. The reactions were started by combining 9 μl of substrate mix (consisting of peptide and ATP) with 9 μl of kinase dilution. The reactions were incubated for 60 minutes at 30° C. and stopped by adding 70 μl of stop buffer (100 mM Hepes, 5% DMSO, 0.1% Coating reagent, 10 mM EDTA, 0.015% Brij 35).
Fluorescently labeled synthetic peptides were used as substrates in all reactions. A peptide derived from the sequence of IRS-1 (IRS-1 peptide, FITC-Ahx-KKSRGDYMTMQIG-NH2) was used for JAK1 and TYK2 and a peptide named JAK3tide (FITC-GGEEEEYFELVKKKK-NH2) for JAK2 and JAK3. Specific assay conditions are described in Table 1:
The terminated reactions were transferred to the Caliper LabChip 3000 reader and the turnover of each reaction was measured by determining the substrate/product ratio.
Test compounds were dissolved in DMSO (10 mM) and transferred into 1.4 mL flat bottom or V-shaped Matrix tubes carrying a unique 2D matrix chip by individual compound hubs. The numbers of these chips were distinctively linked to the individual compound identification numbers. The stock solutions were stored at −20° C. if not used immediately. For the test procedure the vials were defrosted and identified by a scanner whereby a working sheet was generated that guided the subsequent working steps.
Compound dilutions were made in 96 well plates. This format enabled the assay of maximally 40 individual test compounds at 8 concentrations (single points) including 4 reference compounds. The dilution protocol included the production of pre-dilution plates, master plates and assay plates:
Pre-dilution plates: 96 polypropylene well plates were used as pre-dilution plates. A total of 4 pre-dilution plates were prepared including 10 test compounds each on the plate positions A1-A10, one standard compound at A11 and one DMSO control at A12. All dilution steps were done on a HamiltonSTAR robot. Master plates: 100 μL of individual compound dilutions including standard compound and controls of the 4 “pre-dilution plates” were transferred into a 384 “master plate” including the following concentrations 1′820, 564, 182, 54.6, 18.2, 5.46, 1.82 and 0.546 μM, respectively in 90% of DMSO. Assay plates: Identical assay plates were then prepared by pipetting […] each of compound dilutions of the master plates into 384-well “assay plates”. In the following the compounds were mixed with 9 μL of assays components plus 9 μL enzyme corresponding to a 1:181 dilution steps enabling the final concentration of 10, 3.0, 1.0, 0.3, 0.1, 0.03, 0.01 and 0.003 μM, respectively. The preparation of the master plates were handled by the Matrix PlateMate Plus robot and replication of assay plates by the HummingBird robot.

[3] = tested on: bleomycin-induced pulmonary fibrosis; settings: bleomycin-treated rats; cited from earlier work

T2 sequence (O60674 808-1132): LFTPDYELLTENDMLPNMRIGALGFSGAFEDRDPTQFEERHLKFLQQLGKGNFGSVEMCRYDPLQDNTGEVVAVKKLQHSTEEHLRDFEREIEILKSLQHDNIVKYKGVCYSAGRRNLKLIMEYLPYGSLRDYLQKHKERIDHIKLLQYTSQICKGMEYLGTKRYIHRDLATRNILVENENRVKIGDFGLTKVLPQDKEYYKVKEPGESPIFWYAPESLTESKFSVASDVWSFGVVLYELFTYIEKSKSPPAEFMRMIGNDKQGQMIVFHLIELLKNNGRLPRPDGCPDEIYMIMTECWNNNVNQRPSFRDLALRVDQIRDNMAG

| Molecule | IC50 [1] [µM] | IC50 [2] [µM] | other results |
| --- | --- | --- | --- |
| O[C@H]1CC[C@H](Nc2ccc3ncc(-c4ccnc(-c5ccncc5)c4)n3n2)CC1 [Example 1.1, 4-(3-[2,4′]Bipyridinyl-4-yl-imidazo[1,2-b]pyridazin-6-ylamino)-cyclohexanol] | 0.042 | – | – |
| Cc1ccc(-c2cc(-c3cnc4ccc(NC5CCC(O)CC5)nn34)ccn2)s1 (stereo not drawn) [Example 1.2, 4-{3-[2-(5-Methyl-thiophen-2-yl)-pyridin-4-yl]-imidazo[1,2-b]pyridazin-6-ylamino}-cyclohexanol] | 0.036 | – | – |
| OC1CCC(Nc2ccc3ncc(-c4ccnc(-c5ccoc5)c4)n3n2)CC1 (stereo not drawn) [Example 1.3, 4-[3-(2-Furan-3-yl-pyridin-4-yl)-imidazo[1,2-b]pyridazin-6-ylamino]-cyclohexanol] | 0.005 | – | – |
| Cn1cc(-c2cc(-c3cnc4ccc(NC5CCC(O)CC5)nn34)ccn2)cn1 (stereo not drawn) [Example 1.4, 4-{3-[2-(1-Methyl-1H-pyrazol-4-yl)-pyridin-4-yl]-imidazo[1,2-b]pyridazin-6-ylamino}-cyclohexanol] | 0.15 | – | – |
| OC1CCC(Nc2ccc3ncc(-c4ccnc(C5CC5)c4)n3n2)CC1 (stereo not drawn) [Example 1.6, 4-[3-(2-Cyclopropyl-pyridin-4yl)-imidazo[1,2-b]pyridazin-6-ylamino]-cyclohexanol] | 0.015 | – | – |
| OC1CCC(Nc2ccc3ncc(-c4cccc(-n5cccn5)c4)n3n2)CC1 (stereo not drawn) [Example 1.7, 4-[3-(3-Pyrazol-1-yl-phenyl)-imidazo[1,2-b]pyridazin-6-ylamino]-cyclohexanol] | 0.005 | – | – |
| CN1CCN(C(=O)c2ccc(-c3cnc4ccc(NCc5cc(F)ccc5F)nn34)cc2)CC1 [Example 2.1, {4-[6-(2,5-Difluoro-benzylamino)-imidazo[1,2-b]pyridazin-3-yl]-phenyl}-(4-methyl-piperazin-1-yl)-methanone] | – | 0.016 | – |
| O=C(NCCN1CCOCC1)c1ccc(-c2cnc3ccc(NCc4cc(F)ccc4F)nn23)cc1 [Example 2.2, 4-[6(2,5-Difluorobenzylamino)-imidazo[1,2-b]pyridazin-3-yl]-N-(2-morpholin-4-yl-ethyl)benzamide] | – | 0.008 | – |
| CN(C)C1CCN(C(=O)c2ccc(-c3cnc4ccc(NCc5cc(F)ccc5F)nn34)cc2)CC1 [Example 2.3, {4-[6-(2,5-Difluorobenzylamino)-imidazo[1,2-b]pyridazin-3-yl]-phenyl}-(4-dimethylamino-piperidin-1-yl)-methanone] | – | 0.014 | – |
| O=C(c1ccc(-c2cnc3ccc(NCc4cc(F)ccc4F)nn23)cc1)N1CCOCC1 [Example 2.4, {4-[6-(2,5-Difluoro-benzylamino)-imidazo[1,2-b]pyridazin-3-yl]-phenyl}-morpholin-4-yl-methanone] | – | 0.02 | – |
| O=C(NC1CCOCC1)c1cccc(-c2cnc3ccc(NCc4cc(F)ccc4F)nn23)c1 [Example 2.5] | – | 0.021 | – |
| CCN1CCCC1CNC(=O)c1ccc(-c2cnc3ccc(NCc4cc(F)ccc4F)nn23)cc1 (stereo not drawn) [Example 2.6, 4-[6-(2,5-Difluoro-benzylamino)-imidazo[1,2-b]pyridazin-3-yl]-N-(1-ethyl-pyrrolidin-2-ylmethyl)-benzamide] | – | 0.011 | – |
| O=C(NC1CCOCC1)c1ccc(-c2cnc3ccc(NCc4cc(F)ccc4F)nn23)cc1 [Example 2.7, 4-[6-(2,5-Difluorobenzylamino)-imidazo[1,2-b]pyridazin-3-yl]-N-(tetrahydro-pyran-4-yl)-benzamide] | – | 0.013 | – |
| B1 | – | – | destruction of lung architecture [3]: ameliorated; lung fibrosis [3]: attenuated; number of infiltrating cells [3]: markedly reduced; number of macrophages and neutrophils in bronchoalveolar lavage [3]: significantly reduced; protein content of bronchoalveolar lavage [3]: reduced the protein content |
